Measurements published in patent US20250289787A1, “HERBICIDAL 2-OXO-NICOTINIC ACID DERIVATIVES” (SYNGENTA CROP PROTECTION AG, priority 2022, published 2025).

Tests used:
Format in all cases: in vivo
Setaria faberi (SETFA) [1] = test: Post-emergence test, herbicidal damage; set-up: key: 5=81-100%; 4=61-80%; 3=41-60%; 2=21-40%; 1=1-20%; 0=no damage to the plant; -=not tested; settings: sprayed after 8 days cultivation, 1000 g/ha unless otherwise stated, evaluated after 13 days, five-point scale
How it was run: (§1)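 Herbicidal effect is expressed as a score from 0 (no damage) to 5 (81–100% damage), assessed 13 days after spraying. Compound at 1000 g/ha in acetone/water with 0.5% Tween 20 is applied to pots kept at 24 °C/16 °C, 14 h photoperiod.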

[2] = system: Amaranthus palmeri (AMAPA); test: Post-emergence test, herbicidal damage; set-up: key: 5=81-100%; 4=61-80%; 3=41-60%; 2=21-40%; 1=1-20%; 0=no damage to the plant; -=not tested; settings: sprayed after 8 days cultivation, 1000 g/ha unless otherwise stated, evaluated after 13 days, five-point scale
How it was run: as §1

Zea mays (ZEAMX) [3] = test: Post-emergence test, herbicidal damage; set-up: key: 5=81-100%; 4=61-80%; 3=41-60%; 2=21-40%; 1=1-20%; 0=no damage to the plant; -=not tested; settings: sprayed after 8 days cultivation, 1000 g/ha unless otherwise stated, evaluated after 13 days, five-point scale
How it was run: as §1

[4] = system: Amaranthus retoflexus (AMARE); test: Post-emergence test, herbicidal damage; set-up: key: 5=81-100%; 4=61-80%; 3=41-60%; 2=21-40%; 1=1-20%; 0=no damage to the plant; -=not tested; settings: sprayed after 8 days cultivation, 1000 g/ha unless otherwise stated, evaluated after 13 days, five-point scale
How it was run: as §1

[5] = system: Echinochloa crus-galli (ECHCG); test: Post-emergence test, herbicidal damage; set-up: key: 5=81-100%; 4=61-80%; 3=41-60%; 2=21-40%; 1=1-20%; 0=no damage to the plant; -=not tested; settings: sprayed after 8 days cultivation, 1000 g/ha unless otherwise stated, evaluated after 13 days, five-point scale
How it was run: as §1

[6] = system: Ipomoea hederacea (IPOHE); test: Post-emergence test, herbicidal damage; set-up: key: 5=81-100%; 4=61-80%; 3=41-60%; 2=21-40%; 1=1-20%; 0=no damage to the plant; -=not tested; settings: sprayed after 8 days cultivation, 1000 g/ha unless otherwise stated, evaluated after 13 days, five-point scale
How it was run: as §1

[7] = system: Echinochloa crus-galli (ECHCG); test: Pre-emergence test, herbicidal damage; set-up: key: 5=81-100%; 4=61-80%; 3=41-60%; 2=21-40%; 1=1-20%; 0=no damage to the plant; -=not tested; settings: 1000 g/ha unless otherwise stated, evaluated after 13 days, five-point scale
[8] = system: Ipomoea hederacea (IPOHE); test: Pre-emergence test, herbicidal damage; set-up: key: 5=81-100%; 4=61-80%; 3=41-60%; 2=21-40%; 1=1-20%; 0=no damage to the plant; -=not tested; settings: 1000 g/ha unless otherwise stated, evaluated after 13 days, five-point scale
[9] = system: Amaranthus palmeri (AMAPA); test: Pre-emergence test, herbicidal damage; settings: 1000 g/ha unless otherwise stated, evaluated after 13 days, five-point scale
[10] = system: Amaranthus retoflexus (AMARE); test: Pre-emergence test, herbicidal damage; settings: 1000 g/ha unless otherwise stated, evaluated after 13 days, five-point scale
Zea mays (ZEAMX) [11] = test: Pre-emergence test, herbicidal damage; set-up: key: 5=81-100%; 4=61-80%; 3=41-60%; 2=21-40%; 1=1-20%; 0=no damage to the plant; -=not tested; settings: 1000 g/ha unless otherwise stated, evaluated after 13 days, five-point scale
Setaria faberi (SETFA) [12] = test: Pre-emergence test, herbicidal damage; set-up: key: 5=81-100%; 4=61-80%; 3=41-60%; 2=21-40%; 1=1-20%; 0=no damage to the plant; -=not tested; settings: 1000 g/ha unless otherwise stated, evaluated after 13 days, five-point scale

Compound | percentage damage caused to the plant, SEFTA (Setaria faberi (SETFA) [1]) | percentage damage caused to the plant, AMAPA [2] | percentage damage caused to the plant, ZEAMX (Zea mays (ZEAMX) [3]) | percentage damage caused to the plant, AMARE [4] | percentage damage caused to the plant, ECHCG [5] | percentage damage caused to the plant, IPOHE [6] | percentage damage caused to the plant, ECHCG [7] | percentage damage caused to the plant, IPOHE [8] | percentage damage caused to the plant, AMAPA [9] | percentage damage caused to the plant, AMARE [10] | percentage damage caused to the plant, ZEAMX (Zea mays (ZEAMX) [11]) | percentage damage caused to the plant, SEFTA (Setaria faberi (SETFA) [12])
Cc1c(Cl)c(-c2ccc(Cl)c(Cl)c2)c(C(=O)O)c(=O)n1Cc1ccc(C(F)(F)F)cc1F [Compound 28, 5-chloro-4-(3,4-dichlorophenyl)-1-[[2-fluoro-4-(trifluoromethyl)phenyl]methyl]-6-methyl-2-oxo-pyridine-3-carboxylic acid] | 1 (1=1-20%) | 4 (4=61-80%) | 1 (1=1-20%) | 3 (3=41-60%) | 0 | 1 (1=1-20%) | 1 (1=1-20%) | 1 (1=1-20%) | 4 (4=61-80%) | 3 (3=41-60%) | 1 (1=1-20%) | 0
Cc1cc(-c2ccc(Cl)c(Cl)c2)c(C(=O)O)c(=O)n1Cc1ccc(F)cc1F [Compound 31, 4-(3,4-dichlorophenyl)-1-[(2,4-difluorophenyl)methyl]-6-methyl-2-oxo-pyridine-3-carboxylic acid] | 0 | 1 (1=1-20%) | 0 | 1 (1=1-20%) | 1 (1=1-20%) | 0 | 0 | 0 | 1 (1=1-20%) | 1 (1=1-20%) | 0 | 1 (1=1-20%)
C=Cc1c(-c2ccc(Cl)c(Cl)c2)c(C(=O)O)c(=O)n(-c2ccc(Cl)cc2F)c1C [Compound 32, 1-(4-chloro-2-fluoro-phenyl)-4-(3,4-dichlorophenyl)-6-methyl-2-oxo-5-vinyl-pyridine-3-carboxylic acid] | 1 (1=1-20%) | 4 (4=61-80%) | 1 (1=1-20%) | 3 (3=41-60%) | 1 (1=1-20%) | 2 (2=21-40%) | 2 (2=21-40%) | 1 (1=1-20%) | 4 (4=61-80%) | 3 (3=41-60%) | 1 (1=1-20%) | 1 (1=1-20%)
Cc1c(Br)c(-c2ccc(Cl)c(Cl)c2)c(C(=O)O)c(=O)n1Cc1ccc(C#N)cc1F [Compound 33, 5-bromo-1-[(4-cyano-2-fluoro-phenyl)methyl]-4-(3,4-dichlorophenyl)-6-methyl-2-oxo-pyridine-3-carboxylic acid] | 1 (1=1-20%) | 3 (3=41-60%) | 1 (1=1-20%) | 3 (3=41-60%) | 1 (1=1-20%) | 1 (1=1-20%) | 1 (1=1-20%) | 1 (1=1-20%) | 3 (3=41-60%) | 3 (3=41-60%) | 1 (1=1-20%) | 1 (1=1-20%)
Cc1c(Cl)c(-c2ccc(Cl)c(Cl)c2)c(C(=O)O)c(=O)n1Cc1ccc(F)cc1F [Compound 34, 5-chloro-4-(3,4-dichlorophenyl)-1-[(2,4-difluorophenyl)methyl]-6-methyl-2-oxo-pyridine-3-carboxylic acid] | 0 | 4 (4=61-80%) | 0 | 3 (3=41-60%) | 1 (1=1-20%) | 1 (1=1-20%) | 1 (1=1-20%) | 0 | 4 (4=61-80%) | 3 (3=41-60%) | 0 | 1 (1=1-20%)
CCc1c(-c2ccc(Cl)c(Cl)c2)c(C(=O)O)c(=O)n(-c2ccc(Cl)cc2F)c1C [Compound 35, 1-(4-chloro-2-fluoro-phenyl)-4-(3,4-dichlorophenyl)-5-ethyl-6-methyl-2-oxo-pyridine-3-carboxylic acid] | 0 | 4 (4=61-80%) | 0 | 4 (4=61-80%) | 0 | 1 (1=1-20%) | 1 (1=1-20%) | 0 | 4 (4=61-80%) | 4 (4=61-80%) | 0 | 0
COCc1c(-c2ccc(Cl)c(Cl)c2)c(C(=O)O)c(=O)n(-c2ccc(F)cc2F)c1C [Compound 36, 4-(3,4-dichlorophenyl)-1-(2,4-difluorophenyl)-5-(methoxymethyl)-6-methyl-2-oxo-pyridine-3-carboxylic acid] | 1 (1=1-20%) | 2 (2=21-40%) | 0 | 2 (2=21-40%) | 0 | 1 (1=1-20%) | 1 (1=1-20%) | 1 (1=1-20%) | 2 (2=21-40%) | 2 (2=21-40%) | 0 | 0
Cc1c(C2CC2)c(-c2ccc(Cl)c(Cl)c2)c(C(=O)O)c(=O)n1-c1ccc(F)cc1F [Compound 37, 5-cyclopropyl-4-(3,4-dichlorophenyl)-1-(2,4-difluorophenyl)-6-methyl-2-oxo-pyridine-3-carboxylic acid] | 1 (1=1-20%) | 4 (4=61-80%) | 1 (1=1-20%) | 3 (3=41-60%) | 1 (1=1-20%) | 2 (2=21-40%) | 2 (2=21-40%) | 1 (1=1-20%) | 4 (4=61-80%) | 3 (3=41-60%) | 1 (1=1-20%) | 1 (1=1-20%)
C=Cc1c(-c2ccc(Cl)c(Cl)c2)c(C(=O)O)c(=O)n(-c2ccc(F)cc2F)c1C [Compound 38, 4-(3,4-dichlorophenyl)-1-(2,4-difluorophenyl)-6-methyl-2-oxo-5-vinyl-pyridine-3-carboxylic acid] | 0 | 1 (1=1-20%) | 0 | 1 (1=1-20%) | 0 | 2 (2=21-40%) | 2 (2=21-40%) | 0 | 1 (1=1-20%) | 1 (1=1-20%) | 0 | 0
